According to patent publication US11583569B2, “PSMA-targeting amanitin conjugates” (Heidelberg Pharma Research GmbH, priority 2017, dated 2023):

How the values were obtained:
PC3 (PSMA−) = format: cell-based
Description: (§1) Note: A direct comparison of all DUPA conjugates with amanitin was not performed in one experiment. The amanitin curve shown in the graph is derived from the direct comparison between HDP 30.2284 and amanitin.

LNCaP (PSMA+) = format: cell-based; conditions: for IC50: LNCaP (PSMA+); for S (selectivity): IC50 PC3 (PSMA−) / IC50 LNCaP (PSMA+); for TI for LNCaP: IC50 of free toxin / IC50 of conjugate
Description: as §1

RNA-polymerase II = RNA-polymerase II (Homo sapiens, UniProt P24928); conditions: complex between amanitin and RNA-polymerase II; cited from earlier work

Compound | IC50 (PC3 (PSMA−)) | IC50 (LNCaP (PSMA+)) | S (selectivity) (LNCaP (PSMA+)) | TI for LNCaP (LNCaP (PSMA+)) | Kd (RNA-polymerase II)
CC[C@H](C)[C@@H]1NC(=O)CNC(=O)C2Cc3c([nH]c4cc(OCc5ccc(NC(=O)[C@H](C)NC(=O)[C@@H](NC(=O)CSC[C@@H](NC(=O)[C@H](Cc6ccccc6)NC(=O)[C@H](Cc6ccccc6)NC(=O)CCCCCCCNC(=O)CCC(NC(=O)NC(CCC(=O)O)C(=O)O)C(=O)O)C(=O)O)C(C)C)cc5)ccc34)[S+]([O-])CC(NC(=O)CNC1=O)C(=O)N[C@@H](CC(N)=O)C(=O)N1CC(O)C[C@H]1C(=O)N[C@@H]([C@@H](C)[C@@H](O)CO)C(=O)N2 (stereo partly drawn) [HDP 30.2515, 6′-O-[2-((DUPA-Aoc-Phe-Phe-Cys)-sulfanyl)-acetamido-Val-Ala-PAB]-α-amantin] | 0.663 µM | 0.00451 µM |  |  | 
CC[C@H](C)[C@@H]1NC(=O)CNC(=O)[C@@H]2Cc3c([nH]c4cc(OCCCCCCN5C(=O)CC(SC[C@H](NC(=O)[C@H](Cc6ccccc6)NC(=O)[C@H](Cc6ccccc6)NC(=O)CCCCCCCNC(=O)CC[C@H](NC(=O)N[C@@H](CCC(=O)O)C(=O)O)C(=O)O)C(=O)O)C5=O)ccc34)[S@+]([O-])C[C@H](NC(=O)CNC1=O)C(=O)N[C@@H](CC(N)=O)C(=O)N1C[C@H](O)C[C@H]1C(=O)N[C@@H]([C@@H](C)[C@@H](O)CO)C(=O)N2 (stereo partly drawn) [HDP 30.2301, 6′-O-[6-(((DUPA-Aoc-Phe-Phe-Cys)-sulfanyl)-2,5-dioxopyrrolidin-1-yl)-hexyl]-α-amantin] | 1.52 µM | 0.00611 µM | 249 | 78 | 
CC[C@H](C)[C@@H]1NC(=O)CNC(=O)[C@@H]2Cc3c([nH]c4cc(OCc5ccc(NC(=O)[C@H](CCCNC(N)=O)NC(=O)[C@@H](NC(=O)CCCCCN6C(=O)CC(SC[C@H](NC(=O)[C@H](Cc7ccccc7)NC(=O)[C@H](Cc7ccccc7)NC(=O)CCCCCCCNC(=O)CC[C@H](NC(=O)N[C@@H](CCC(=O)O)C(=O)O)C(=O)O)C(=O)O)C6=O)C(C)C)cc5)ccc34)[S@+]([O-])C[C@H](NC(=O)CNC1=O)C(=O)N[C@@H](CC(N)=O)C(=O)N1C[C@H](O)C[C@H]1C(=O)N[C@@H]([C@@H](C)[C@@H](O)CO)C(=O)N2 (stereo partly drawn) [HDP 30.2537, 6′-O-[6-(3-(((DUPA-Aoc-Phe-Phe-Cys)-sulfanyl)-2,5-dioxopyrrolidin-1-yl)-hexanamido)-Val-Cit-PAI3]-α-amantin] |  |  | 148 | 371 | 
CC[C@H](C)[C@@H]1NC(=O)CNC(=O)[C@@H]2Cc3c([nH]c4cc(O)ccc34)[S+]([O-])C[C@@H](NC(=O)CNC1=O)C(=O)N[C@@H](CC(N)=O)C(=O)N1C[C@H](O)C[C@H]1C(=O)N[C@@H]([C@@H](C)[C@@H](O)CO)C(=O)N2 (stereo in doubt) [α-amanitin, reference compound] | 0.213 µM | 0.479 µM |  |  | 0.003 µM
CC[C@H](C)[C@@H]1NC(=O)CNC(=O)[C@@H]2Cc3c([nH]c4cc(OCCC(C)SSC[C@H](NC(=O)[C@H](Cc5ccccc5)NC(=O)[C@H](Cc5ccccc5)NC(=O)CCCCCCCNC(=O)CC[C@H](NC(=O)N[C@@H](CCC(=O)O)C(=O)O)C(=O)O)C(=O)O)ccc34)[S@+]([O-])C[C@H](NC(=O)CNC1=O)C(=O)N[C@@H](CC(N)=O)C(=O)N1C[C@H](O)C[C@H]1C(=O)N[C@@H]([C@@H](C)[C@@H](O)CO)C(=O)N2 (stereo partly drawn) [HDP 30.2589] |  |  | 22.5 | 53 | 
CC[C@H](C)[C@@H]1NC(=O)CNC(=O)[C@@H]2Cc3c([nH]c4cc(OCc5ccc(NC(=O)[C@H](C)NC(=O)[C@@H](NC(=O)CN6C(=O)C(SCCOCCOCCOCCOCCOCCOCCOCCNC(=O)[C@H](Cc7ccccc7)NC(=O)[C@H](Cc7ccccc7)NC(=O)CCCCCCCNC(=O)CC[C@H](NC(=O)N[C@@H](CCC(=O)O)C(=O)O)C(=O)O)=C(SCCOCCOCCOCCOCCOCCOCCOCCNC(=O)[C@H](Cc7ccccc7)NC(=O)[C@H](Cc7ccccc7)NC(=O)CCCCCCCNC(=O)CC[C@H](NC(=O)N[C@@H](CCC(=O)O)C(=O)O)C(=O)O)C6=O)C(C)C)cc5)ccc34)[S@+]([O-])C[C@H](NC(=O)CNC1=O)C(=O)N[C@@H](CC(N)=O)C(=O)N1C[C@H](O)C[C@H]1C(=O)N[C@@H]([C@@H](C)[C@@H](O)CO)C(=O)N2 [HDP 30.2490, 6′-O-[(3,4-(((DUPA-Aoc-Phe-Phe-PEGn)-sulfanyl)-2,5-dioxopyrrolidin-1-yl)-propanamido)-Val-Ala-PAB]-α-amantin] |  |  | 52.5 | 62 | 
CC[C@H](C)[C@@H]1NC(=O)CNC(=O)[C@@H]2Cc3c([nH]c4cc(OCc5ccc(NC(=O)[C@H](C)NC(=O)[C@@H](NC(=O)CCN6C(=O)CC(SC[C@H](NC(=O)[C@H](Cc7ccccc7)NC(=O)[C@H](Cc7ccccc7)NC(=O)CCCCCCCNC(=O)CC[C@H](NC(=O)N[C@@H](CCC(=O)O)C(=O)O)C(=O)O)C(=O)O)C6=O)C(C)C)cc5)ccc34)[S@+]([O-])C[C@H](NC(=O)CNC1=O)C(=O)N[C@@H](CC(N)=O)C(=O)N1C[C@H](O)C[C@H]1C(=O)N[C@@H]([C@@H](C)[C@@H](O)CO)C(=O)N2 (stereo partly drawn) [HDP 30.2535, 6′-O-[3-(3-(((DUPA-Aoc-Phe-Phe-Cys)-sulfanyl)-2,5-dioxopyrrolidin-1-yl)-propanamido)-Val-Ala-PAB]-α-amantin] |  |  | 191 | 253 | 
CC[C@H](C)[C@@H]1NC(=O)CNC(=O)[C@H]2Cc3c([nH]c4cc(OCc5ccc(NC(=O)[C@H](C)NC(=O)[C@@H](NC(=O)CCCCCN6C(=O)CC(SC[C@H](NC(=O)[C@H](Cc7ccccc7)NC(=O)[C@H](Cc7ccccc7)NC(=O)CCCCCCCNC(=O)CCC(NC(=O)NC(CCC(=O)O)C(=O)O)C(=O)O)C(=O)O)C6=O)C(C)C)cc5)ccc34)[S+]([O-])C[C@H](NC(=O)CNC1=O)C(=O)N[C@@H](CC(N)=O)C(=O)N1C[C@H](O)C[C@H]1C(=O)N[C@@H]([C@@H](C)[C@@H](O)CO)C(=O)N2 (stereo partly drawn) [HDP 30.2284, 6′-O-[6-(3-(((DUPA-Aoc-Phe-Phe-Cys)-sulfanyl)-2,5-dioxopyrrolidin-1-yl)-hexanamido)-Val-Ala-PAB]-α-amantin] | 1.57 µM | 0.000863 µM | 1819 | 555 | 
